Experiment [1] addresses T1, indoleamine 2,3-dioxygenase (IDO) (Homo sapiens, UniProt P14902).
T1 construct: host or cells: HeLa cells treated with IFNγ (25 ng/mL)
Nature of the experiment: HeLa cell-based indoleamine 2,3-dioxygenase (IDO) assay (IFNγ-induced kynurenine production, absorbance 480 nm). Conditions: HeLa cells, IFNγ 25 ng/mL, 48 hour incubation. How it is done: Assessment of inhibitor activity in HeLa cell-based indoleamine 2,3-dioxygenase (IDO) assay:
HeLa (ATCC® CCL-2) cells were obtained from the ATCC® and cultured in Dulbecco's Modified Eagle Medium supplemented with 4.5 g/L glucose, […] L-glutamine and […] (#10-013-CV, Corning), 2 mM L-alanyl-L-glutamine dipeptide (#35050-061, Gibco), 100U/mL penicillin, 100 μg/mL stroptomycin (#SV30010. HyClone) and 10% fetal bovine serum (#SH30071.03 HyClone). Cells were maintained in a humidified incubator at 37° C. in 5% CO2.
IDO activity was assessed as a function of kynurenine production as follows: HeLa cells were seeded in a 96-well culture plate at a density of 5,000 cells/well and allowed to equilibrate overnight. After 24 hours, the media was aspirated and replaced with media containing IFNγ (#285-IF/CF, R&D Systems) at a final concentration of 25 ng/mL. A serial dilution of each test compound was added to the cells in a total volume of 200 μL of culture medium. After a further 48 hour incubation, 170 μL of supernatant was transferred from each well to a fresh 96-well plate, 12.1 μL of 6.1N trichloroacetic acid (#T0699, Sigma-Aldrich) was added to each well and mixed, followed by incubation at 65° C. for 20 minutes to hydrolyze N-formylkynurenine, the product of indoleamine 2,3-dioxygenase, to kynurenine. The reaction mixture was then centrifuged for 10 mins at 500×g to sediment the precipitate. 100 μL of the supernatant was transferred from each well to a fresh 96-well plate. 100 μl of 2% (w/v) p-dimethylaminobenzaldehyde (#15647-7, Sigma-Aldrich) in acetic acid (#A6283, Sigma-Aldrich) was added to each well mixed and incubated at room temperature for 20 mins. Kynurenine concentrations were determined by measuring absorbance at 480 nm and calibrating against an L-kynurenine (#K8625, Sigma-Aldrich) standard curve using a SPECTRAMAX® M2e microplate reader (Molecular Devices). The percentage activity at each inhibitor concentration was determined and IC50 values assessed using nonlinear regression.

A further experiment concerns the target T2, human IDO1 (Homo sapiens, UniProt P14902).
T2 construct: expressed in transfected cells
Nature of the experiment: IDO inhibition assay in HEK293 cells stably expressing human IDO1 (kynurenine, Ehrlich reagent, absorbance 490 nm). It is filed as cell-based. Conditions: 20 hours incubation, read-out: IDO1 HEK Human IC50. As for the experimental part:
HEK293 cells were transfected with a pCDNA-based mammalian expression vector harboring human IDO1 cDNA (NM 002164.2) by electroporation. They were cultured in medium (DMEM with 10% FBS) containing 1 mg/ml G418 for two weeks. Clones of HEK293 cells that stably expressed human IDO1 protein were selected and expanded for IDO inhibition assay. The human IDO1/HEK293 cells were seeded at 10,000 cells per 50 μL per well with RPMI/phenol red free media contains 10% FBS in a 384-well black wall clear bottom tissue culture plate (Matrix Technologies LLC) 100 nL of certain concentration of compound was then added to each well using ECHO liquid handling systems. The cells were incubated for 20 hours in 37° C. incubator with 5% CO2. The compound treatments were stopped by adding trichloroacetic acid (Sigma-Aldrich) to a final concentration at 0.2%. The cell plate was further incubated at 50° C. for 30 minute. The equal volume supernatant ([…]) and 0.2% (w/v) Ehrlich reagent (4-dimethylaminobenzaldehyde, Sigma-Aldrich) in glacial acetic acid were mixed in a new clear bottom 384-well plate. This plate was then incubated at room temperature for 30 minute. The absorbance at 490 nm was measured on Envision plate reader. Compound IC50 values were calculated using the counts of 500 nM of a reference standard treatment as one hundred percent inhibition, and counts of no compound but DMSO treatment as zero percent inhibition.

16 molecules from US11351164B2, “Inhibitors of indoleamine 2,3-dioxygenase and methods of their use” (BRISTOL-MYERS SQUIBB COMPANY, priority 2016, dated 2022) can be followed below.

The IC50 is the midpoint of a concentration-inhibition curve.

T2 sequence (P14902 whole entry): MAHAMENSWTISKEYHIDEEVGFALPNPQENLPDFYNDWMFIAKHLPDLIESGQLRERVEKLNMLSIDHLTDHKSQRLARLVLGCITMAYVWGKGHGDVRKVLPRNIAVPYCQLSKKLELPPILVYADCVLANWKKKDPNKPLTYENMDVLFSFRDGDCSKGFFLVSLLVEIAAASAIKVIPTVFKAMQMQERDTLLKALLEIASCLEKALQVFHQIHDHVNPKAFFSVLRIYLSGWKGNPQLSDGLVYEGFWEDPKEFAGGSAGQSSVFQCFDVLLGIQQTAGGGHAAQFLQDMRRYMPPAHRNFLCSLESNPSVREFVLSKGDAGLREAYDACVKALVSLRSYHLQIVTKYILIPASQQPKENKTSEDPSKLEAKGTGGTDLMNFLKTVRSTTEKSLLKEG
T1 sequence (P14902 whole entry): as above

For `C[C@@H](c1nnc(Nc2ccccc2)[nH]1)[C@H]1CC[C@@H](c2ccnc3ccc(F)cc32)CC1` [Example 22, 5-((R)-1-((1s,4s)-4-(6-Fluoroquinolin-4-yl)cyclohexyl)ethyl)-N-phenyl-4H-1,2,4-triazol-3-amine], the IC50 in experiment [1] turned out to be 8.8 nM; at human IDO1 it was 5.9 nM.

As for `Cc1cnc(-c2nnc(N[C@H](C)[C@H]3CC[C@@H](c4ccnc5ccc(F)cc54)CC3)o2)s1` [Example 30, N-((R)-1-((1s,4S)-4-(6-fluoroquinolin-4-yl)cyclohexyl)ethyl)-5-(5-methylthiazol-2-yl)-1,3,4 oxadiazol-2-amine], the half-inhibitory concentration (IC50) in experiment [1] was determined as 13.3 nM; on human IDO1, 10.6 nM.

`C[C@@H](Nc1nnc(-c2ccc(Cl)cc2)s1)[C@H]1CC[C@@H](c2ccnc3ccc(F)cc32)CC1` [Example 24, 5-(4-Chlorophenyl)-N—((R)-1-((1s,4S)-4-(6-fluoroquinolin-4-yl)cyclohexyl)ethyl)-1,3,4-thiadiazol-2-amine]: the IC50 in experiment [1] was found to be 5.4 nM; on human IDO1 it was 5.5 nM.

For `C[C@@H](c1nnc(-c2ccc(F)cc2)o1)[C@H]1CC[C@@H](c2ccnc3ccc(F)cc32)CC1` [Example 2, 2-(4-Fluorophenyl)-5-((R)-1-((1s,4s)-4-(6-fluoroquinolin-4-yl)cyclohexyl)ethyl)-1,3,4-oxadiazole], the IC50 in experiment [1] was 34.8 nM; at human IDO1, 39.2 nM.

With `CC(C)Oc1ccc(-c2nnc([C@H](C)[C@H]3CC[C@@H](c4ccnc5ccc(F)cc54)CC3)[nH]2)cc1` [Example 12, 6-fluoro-4-((1S,4s)-4-((R)-1-(5-(4-isopropoxyphenyl)-4H-1,2,4-triazol-3-yl)ethyl)cyclohexyl)quinoline], the values for the IC50 (in experiment [1]; at human IDO1) were 39 nM and 22.5 nM, respectively.

For `C[C@@H](c1nnc(-c2ccc(F)c(Cl)c2)[nH]1)[C@H]1CC[C@@H](c2ccnc3ccc(F)cc32)CC1` [Example 11, 4-((1S,4s)-4-((R)-1-(5-(3-chloro-4-fluorophenyl)-4H-1,2,4-triazol-3-yl)ethyl)cyclohexyl)-6-fluoroquinoline], the IC50 in experiment [1] was found to be 162 nM; on human IDO1 it was 86 nM.

For `C[C@@H](c1nnc(-c2cccc(F)c2)[nH]1)[C@H]1CC[C@@H](c2ccnc3ccc(F)cc32)CC1` [Example 14, 6-fluoro-4-((1S,4s)-4-((R)-1-(5-(3-fluorophenyl)-4H-1,2,4-triazol-3-yl)ethyl)cyclohexyl)quinoline], the IC50 in experiment [1] came out at 72.2 nM; on human IDO1, 36.2 nM.

`C[C@@H](c1nnc(-c2ccc(Cl)cc2)s1)[C@H]1CC[C@@H](c2ccnc3ccc(F)cc32)CC1` [Example 5, 2-(4-Chlorophenyl)-5-((R)-1-((1s,4S)-4-(6-fluoroquinolin-4-yl)cyclohexyl)ethyl)-1,3,4-thiadiazole]: the IC50 worked out at 35 nM in experiment [1] and 15.1 nM at human IDO1.

In the case of `CC(C)Oc1ccc(-c2nnc([C@H](C)[C@H]3CC[C@@H](c4ccnc5ccc(F)cc54)CC3)o2)cc1` [Example 18, 2-((R)-1-((1s,4S)-4-(6-fluoroquinolin-4-yl)cyclohexyl)ethyl)-5-(4-isopropoxyphenyl)-1,3,4-oxadiazole], the results for the IC50 (in experiment [1]; on human IDO1) were 55.5 nM and 66.3 nM, respectively.

For the molecule `CCC(Nc1nnc(-c2ccc(F)cc2)o1)C1CCC(c2ccnc3ccc(C(F)(F)F)cc23)CC1` (single isomer, unassigned) [Example 62, 5-(4-fluorophenyl)-N-(1-((1s,4s)-4-(6-(trifluoromethyl)quinolin-4-yl)cyclohexyl)propyl)-1,3,4-oxadiazol-2-amine], the IC50 in experiment [1] turned out to be 3.5 nM; on human IDO1, 1.7 nM.

`CCC(Nc1nnc(-c2ccc(OC)cc2)o1)C1CCC(c2ccnc3ccc(C(F)(F)F)cc23)CC1` (single isomer, unassigned) [Example 59, 5-(4-methoxyphenyl)-N-(1-((1s,4s)-4-(6-(trifluoromethyl)quinolin-4-yl)cyclohexyl)propyl)-1,3,4-oxadiazol-2-amine]: the IC50 in experiment [1] stood at 4.7 nM; on human IDO1, 6 nM.

As to `C[C@@H](Nc1nnc(-c2ccc(C#N)cc2)o1)[C@H]1CC[C@@H](c2ccnc3ccc(F)cc32)CC1` [Example 29, 4-(5-((R)-1-((1s,4S)-4-(6-fluoroquinolin-4-yl)cyclohexyl)ethylamino)-1,3,4-oxadiazol-2-yl)benzonitrile], the IC50 in experiment [1] was 55.3 nM; on human IDO1 it was 23.5 nM.

For `C[C@@H](c1nnc(-c2ccccc2)o1)[C@H]1CC[C@@H](c2ccnc3ccc(F)cc32)CC1` [Example 19, 2-((R)-1-((1s,4S)-4-(6-fluoroquinolin-4-yl)cyclohexyl)ethyl)-5-phenyl-1,3,4-oxadiazole], the IC50 in experiment [1] came out at 5.5 nM; on human IDO1, 13.8 nM.

For the molecule `C[C@@H](c1ncc(-c2ccc(Cl)cc2)[nH]1)[C@H]1CC[C@@H](c2ccnc3ccc(F)cc32)CC1` [Example 44, 4-((1s,4s)-4-((R)-1-(5-(4-Chlorophenyl)-1H-imidazol-2-yl)ethyl)cyclohexyl)-6-fluoroquinoline], the IC50 in experiment [1] is 10.5 nM; on human IDO1, 12.4 nM.

Regarding `C[C@@H](c1nnc(-c2ccc(Cl)cc2)[nH]1)[C@H]1CC[C@@H](c2ccnc3ccc(F)cc32)CC1` [Example 1, 4-((1s,4s)-4-((R)-1-(5-(4-Chlorophenyl)-4H-1,2,4-triazol-3-yl)ethyl)cyclohexyl)-6-fluoroquinoline], the IC50 in experiment [1] was 14.8 nM; on human IDO1 it was 47.5 nM.

For `C[C@@H](c1nnc(-c2ccc(F)cc2)[nH]1)[C@H]1CC[C@@H](c2ccnc3ccc(F)cc32)CC1` [Example 3, 6-Fluoro-4-((1s,4s)-4-((R)-1-(5-(4-fluorophenyl)-4H-1,2,4-triazol-3-yl)ethyl)cyclohexyl)quinoline], the half-inhibitory concentration (IC50) in experiment [1] was found to be 16.7 nM; on human IDO1, 42.3 nM.
